Source: patent US20250296953A1, “3,4-THIAZOLO-STEROIDS AND METHODS OF MAKING AND USING THE SAME” (Arkansas State University - Jonesboro, priority 2018, published 2025)
Read-outs that look alike come from different tables or passages of the source.

Experiments:
[1] = test system: 60 different human tumor cell lines; settings: for TGI: five dose
SF-295 = experiment: NCI 60 one dose screen; assay type: cell-based, human; settings: one dose; CNS Cancer; SF-295
NCI-H522 (NSCLC) = experiment: NCI 60 one dose screen; assay type: cell-based, human; settings: Non-small Cell Lung Cancer
glioblastoma (SF-295) = experiment: NCI 60 five dose screen
SF-539 = experiment: NCI 60 one dose screen; assay type: cell-based, human; settings: one dose; CNS Cancer; SF-539

For `C[C@]12CCc3sc(Nc4cccc(O)c4)nc3C1=CC[C@@H]1[C@@H]2CC[C@]2(C)C(=O)CC[C@@H]12` [IIa.17, (1S,2R,13R,14S,18S)-7-(3-hydroxyanilino)-2,18-dimethyl-6-thia-8-azapentacyclo[11.7.0.02,10.05,9.014,18]icosa-5(9),7,10-trien-17-one], the LC50 [1] was “>l.00E−4”, the TGI ([1]; 786-0 (Renal Cancer)) was 1.31E−5 and the TGI ([1]; A498 (Renal Cancer)) was greater than 1.00E−4. It also gave a TGI ([1]; A549/ATCC (Non-small Cell Lung Cancer)) greater than 1.00E−4, a TGI ([1]; ACHN (Renal Cancer)) of 2.95E−5 and a TGI ([1]; CAKI-1 (Renal Cancer)) of 3.02E−5. It also gave a TGI ([1]; CCRF-CEM (Leukemia)) greater than 1.00E−4, a TGI ([1]; COLO 205 (Colon Cancer)) of 3.74E−5 and a TGI ([1]; DU-145 (Prostate Cancer)) of 4.09E−5. The TGI ([1]; EKVX (Non-small Cell Lung Cancer)) was greater than 1.00E−4, the TGI ([1]; HCC-2998 (Colon Cancer)) was 4.48E−5 and the TGI ([1]; HCT-15 (Colon Cancer)) was 9.71E−6. It also gave a TGI ([1]; HCT-116 (Colon Cancer)) of 4.17E−6, a TGI ([1]; HOP-62 (Non-small Cell Lung Cancer)) greater than 1.00E−4 and a TGI ([1]; HOP-92 (Non-small Cell Lung Cancer)) of 6.79E−5. It also gave a TGI ([1]; HS 578T (Breast Cancer)) greater than 1.00E−4, a TGI ([1]; HT29 (Colon Cancer)) of 1.76E−5 and a TGI ([1]; IGROV1 (Ovarian Cancer)) greater than 1.00E−4. For the same compound, the TGI ([1]; K-562 (Leukemia)) was greater than 1.00E−4, the TGI ([1]; KM12 (Colon Cancer)) was 2.94E−5 and the TGI ([1]; LOX IMVI (Melanoma)) was 1.08E−5. It also gave a TGI ([1]; M14 (Melanoma)) of 5.09E−5, a TGI ([1]; MALME-3M (Melanoma)) greater than 1.00E−4 and a TGI ([1]; MCF7 (Breast Cancer)) of 3.28E−5. For the same compound, the TGI ([1]; MDA-MB-231/ATCC (Breast Cancer)) was greater than 1.00E−4, the TGI ([1]; MDA-MB-435 (Melanoma)) was greater than 1.00E−4 and the TGI ([1]; MDA-MB-468 (Breast Cancer)) was 1.46E−5. The TGI ([1]; MOLT-4 (Leukemia)) was greater than 1.00E−4, the TGI ([1]; NCI-H23 (Non-small Cell Lung Cancer)) was greater than 1.00E−4 and the TGI ([1]; NCI-H226 (Non-small Cell Lung Cancer)) was 4.50E−5. It also gave a TGI ([1]; NCI-H322M (Non-small Cell Lung Cancer)) greater than 1.00E−4, a TGI ([1]; NCI-H460 (Non-small Cell Lung Cancer)) of 2.79E−5 and a TGI ([1]; NCI-H522 (Non-small Cell Lung Cancer)) of 2.36E−5. For the same compound, the TGI ([1]; NCI/ADR-RES (Ovarian Cancer)) was greater than 1.00E−4, the TGI ([1]; OVCAR-3 (Ovarian Cancer)) was 5.08E−5 and the TGI ([1]; OVCAR-4 (Ovarian Cancer)) was greater than 1.00E−4. The TGI ([1]; OVCAR-5 (Ovarian Cancer)) was greater than 1.00E−4, the TGI ([1]; OVCAR-8 (Ovarian Cancer)) was greater than 1.00E−4 and the TGI ([1]; PC-3 (Prostate Cancer)) was 6.37E−5. For the same compound, the TGI ([1]; RXF 393 (Renal Cancer)) was 1.42E−5, the TGI ([1]; SF-268 (CNS Cancer)) was 7.00E−5 and the TGI ([1]; SK-MEL-2 (Melanoma)) was 6.08E−5. For the same compound, the TGI ([1]; SK-MEL-5 (Melanoma)) was 2.60E−5, the TGI ([1]; SK-MEL-28 (Melanoma)) was greater than 1.00E−4 and the TGI ([1]; SK-OV-3 (Ovarian Cancer)) was greater than 1.00E−4. It also gave a TGI ([1]; SN12C (Renal Cancer)) of 2.53E−5, a TGI ([1]; SNB-19 (CNS Cancer)) greater than 1.00E−4 and a TGI ([1]; SNB-75 (CNS Cancer)) of 7.25E−5. For the same compound, the TGI ([1]; SW-620 (Colon Cancer)) was 1.56E−5, the TGI ([1]; T-47D (Breast Cancer)) was greater than 1.00E−4 and the TGI ([1]; TK-10 (Renal Cancer)) was 5.48E−5. The TGI ([1]; U251 (CNS Cancer)) was 1.93E−5, the TGI ([1]; UACC-62 (Melanoma)) was 2.96E−4 and the TGI ([1]; UACC-257 (Melanoma)) was 9.45E−5. For the same compound, the TGI ([1]; UO-31 (Renal Cancer)) was 1.94E−5, the “Growth Percent” value (SF-295) was −47.70% and the “Growth Percent” value (NCI-H522 (NSCLC)) was −56.41%. For the same compound, the GI50 (glioblastoma (SF-295); Homo sapiens, SF-295) was 8.98 µM, the CC50 (glioblastoma (SF-295); Homo sapiens, SF-295, read-out: LC50) was greater than 100 µM and the TGI (glioblastoma (SF-295); SF-295 (CNS Cancer), five dose) was greater than 1.00E−4. For the same compound, the “Growth Percent” value (SF-539) was −41.82%.
